Here are results for 22 compounds from US20250275959A1, “COMPOUNDS AND METHODS OF THEIR USE” (LEXICON PHARMACEUTICALS, INC., priority 2024, published 2025).

SMILES strings stand for the structures.

The target of the test is hACSL5 (Homo sapiens (Human), UniProt Q9ULC5). In words: Human ACSL5 coupled enzyme Amplex Red assay. It counts as biochemical. To be noted: read-out: hACSL5 IC50. As to the method: Human ACSL5 (33-683) was cloned with a C-terminal 6 His tag and expressed in insect cells (sf9) as per standard insect cell expression protocols. Human ACSL5 was enriched by affinity nickel affinity chromatography followed by Superdex S200 gel filtration column equilibrated in 20 mM HEPES pH 7.8, 500 mM NaCl, 1 mM TCEP, 5% glycerol, 0.1% Triton X^100.
hACSL5, sequence (Q9ULC5 33-683): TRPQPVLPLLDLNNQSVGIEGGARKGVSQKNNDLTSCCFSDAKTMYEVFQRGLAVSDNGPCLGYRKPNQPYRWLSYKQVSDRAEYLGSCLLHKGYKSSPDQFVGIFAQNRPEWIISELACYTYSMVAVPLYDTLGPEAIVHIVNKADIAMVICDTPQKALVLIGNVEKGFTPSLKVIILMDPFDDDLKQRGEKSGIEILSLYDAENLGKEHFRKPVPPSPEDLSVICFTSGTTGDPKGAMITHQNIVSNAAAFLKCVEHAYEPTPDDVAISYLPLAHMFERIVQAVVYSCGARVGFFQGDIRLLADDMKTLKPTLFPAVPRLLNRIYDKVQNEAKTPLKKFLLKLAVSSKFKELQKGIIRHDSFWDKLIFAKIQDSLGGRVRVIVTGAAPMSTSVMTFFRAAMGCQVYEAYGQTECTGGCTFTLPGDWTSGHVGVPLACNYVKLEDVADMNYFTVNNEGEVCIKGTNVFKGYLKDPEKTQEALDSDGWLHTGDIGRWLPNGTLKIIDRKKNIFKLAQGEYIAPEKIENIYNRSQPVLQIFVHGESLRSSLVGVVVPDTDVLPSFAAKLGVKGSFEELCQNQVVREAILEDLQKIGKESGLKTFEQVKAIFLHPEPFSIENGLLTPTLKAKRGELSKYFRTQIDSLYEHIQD
Inhibition of ACSL5 enzyme activity was monitored with a coupled enzyme Amplex Red assay.
The assay is carried out in 384-well microtiterplates. In a total volume of […], compounds are preincubated with 20 nM ACSL5, in a buffer containing 150 mM MOPS-NaOH, 12 mM MgCl2, 0.03% (v/v) Triton X-100, 2.79 U mL-1 Peroxidase and 24 U mL-1 Acyl-CoA Oxidase (pH 7.6). The reaction is started by the addition of substrate and co factors (25 μM oleate, 30 μM CoA, 1 mM ATP and 50 μM Amplex Red) and the fluorescence detected after 10 minutes at 25° C. with a fluorescence reader (BMG-Fluostar; BMG-Technologies) using an excitation wavelength of 535 nm and an emission wavelength of 590 nm.
Concentration-response titration points for each compound tested were filled to the Hill equation yielding concentrations of half maximal inhibition […] and maximal inhibition values.
For `CC(Oc1ccc(C(=O)NS(=O)(=O)N2CCN(C)CC2)c(Cl)c1Cl)c1cccc(Oc2ccccc2)c1` (racemic) [rac-(R)-2,3-dichloro-N-((4-methylpiperazin-1-yl)sulfonyl)-4-(1-(3-phenoxyphenyl)ethoxy)benzamide], the concentration for half-maximal inhibition (IC50) is less than 100 nM.

For `CC(Oc1ccc(C(=O)NS(=O)(=O)CCN)c(Cl)c1Cl)c1cccc(Oc2ccccc2)c1` (racemic) [rac-(R)-N-((2-aminoethyl)sulfonyl)-2,3-dichloro-4-(1-(3-phenoxyphenyl)ethoxy)benzamide], the IC50 was more than 500 nM.

Consider `CC(Oc1ccc(C(=O)NS(=O)(=O)CCN)cc1C(F)(F)F)c1cccc(Oc2ccccc2)c1` (racemic) [rac-(R)-N-((2-aminoethyl)sulfonyl)-4-(1-(3-phenoxyphenyl)ethoxy)-3-(trifluoromethyl)benzamide], for which the half-inhibitory concentration (IC50) is 100 to 500 nM.

Turning to `CC(Oc1ccc(C(=O)NS(=O)(=O)c2ccc(CN)cc2)c(Cl)c1Cl)c1cccc(Oc2ccccc2)c1` (racemic) [rac-(R)-N-((4-(aminomethyl)phenyl)sulfonyl)-2,3-dichloro-4-(1-(3-phenoxyphenyl)ethoxy)benzamide], the IC50 is less than 100 nM.

Regarding `Cc1cc(C(=O)NS(=O)(=O)c2ccc(CN)cc2)ccc1OC(C)c1cccc(Oc2ccccc2)c1` (racemic) [rac-(R)-N-((4-(aminomethyl)phenyl)sulfonyl)-3-methyl-4-(1-(3-phenoxyphenyl)ethoxy)benzamide], the IC50 is less than 100 nM.

Turning to `CC[C@@H](Oc1ccc(C(=O)NS(=O)(=O)N2CCC(OC3CCN(C)CC3)CC2)c(F)c1F)c1cc(OC2CC(OC)C2)ccn1` (stereo partly drawn) [2,3-difluoro-4-((R)-1-(4-((1R,3R)-3-methoxycyclobutoxy)pyridin-2-yl)propoxy)-N-((4-((1-methylpiperidin-4-yl)oxy)piperidin-1-yl)sulfonyl)benzamide], the IC50 is more than 500 nM.

As to `CC[C@@H](Oc1ccc(C(=O)NS(=O)(=O)N2CCN(C)CC2)c(F)c1F)c1cc(OC2CC(OC)C2)ccn1` (stereo partly drawn) [2,3-difluoro-4-((R)-1-(4-((1R,3R)-3-methoxycyclobutoxy)pyridin-2-yl)propoxy)-N-((4-methylpiperazin-1-yl)sulfonyl)benzamide], the IC50 was more than 500 nM.

In the case of `CC[C@@H](Oc1ccc(C(=O)NS(=O)(=O)c2ccc(O[C@@H]3CCCN(C)C3)cc2)c(F)c1F)c1ccc(Oc2ccccn2)cn1` [2,3-difluoro-N-((4-(((R)-1-methylpiperidin-3-yl)oxy)phenyl)sulfonyl)-4-((R)-1-(5-(pyridin-2-yloxy)pyridin-2-yl)propoxy)benzamide], the IC50 is less than 100 nM.

`CC[C@@H](Oc1ccc(C(=O)NS(=O)(=O)c2ccc(O[C@H]3CCCN(C)C3)cc2)c(F)c1F)c1ccc(Oc2ccccn2)cn1` [2,3-difluoro-N-((4-(((S)-1-methylpiperidin-3-yl)oxy)phenyl)sulfonyl)-4-((R)-1-(5-(pyridin-2-yloxy)pyridin-2-yl)propoxy)benzamide]: the IC50 was less than 100 nM.

`CNCc1ccc(S(=O)(=O)NC(=O)c2ccc(OCc3cccc(Oc4ccccc4)c3)c(F)c2F)cc1` [2,3-difluoro-N-((4-((methylamino)methyl)phenyl)sulfonyl)-4-((3-phenoxybenzyl)oxy)benzamide]: the IC50 was less than 100 nM.

As for `CC[C@@H](Oc1ccc(C(=O)NS(=O)(=O)N2CC3CC(C2)N3C)c(F)c1F)c1ccc(Oc2ccccn2)cn1` [2,3-difluoro-N-((6-methyl-3,6-diazabicyclo[3.1.1]heptan-3-yl)sulfonyl)-4-((R)-1-(5-(pyridin-2-yloxy)pyridin-2-yl)propoxy)benzamide], the IC50 is less than 100 nM.

For the compound `CC[C@@H](Oc1ccc(C(=O)NS(=O)(=O)N2CC3CCC(C2)N3C)c(F)c1F)c1ccc(Oc2ccccn2)cn1` [2,3-difluoro-N-((8-methyl-3,8-diazabicyclo[3.2.1]octan-3-yl)sulfonyl)-4-((R)-1-(5-(pyridin-2-yloxy)pyridin-2-yl)propoxy)benzamide], the IC50 was less than 100 nM.

On to `CCOc1ccc(C(C)Oc2ccc(C(=O)NS(=O)(=O)N3CCN(C)CC3)c(F)c2F)nc1` (stereo not shown) [4-(1-(5-ethoxypyridin-2-yl)ethoxy)-2,3-difluoro-N-((4-methylpiperazin-1-yl)sulfonyl)benzamide], for which the IC50 is more than 500 nM.

For `CCOc1ccc(C(C)Oc2ccc(C(=O)NS(=O)(=O)C3CCNCC3)c(F)c2F)nc1` (stereo not shown) [4-(1-(5-ethoxypyridin-2-yl)ethoxy)-2,3-difluoro-N-(piperidin-4-ylsulfonyl)benzamide], the concentration for half-maximal inhibition (IC50) was more than 500 nM.

In the case of `CCOc1ccc(C(CC)Oc2ccc(C(=O)NS(=O)(=O)CCCN3CCOCC3)cc2C(F)(F)F)nc1` (stereo not shown) [4-(1-(5-ethoxypyridin-2-yl)propoxy)-N-((3-morpholinopropyl)sulfonyl)-3-(trifluoromethyl)benzamide], the IC50 is 100 to 500 nM.

Take `CCOc1ccc(C(CC)Oc2ccc(C(=O)NS(=O)(=O)c3ccc(OCCNC)cc3)cc2C(F)(F)F)nc1` (stereo not shown) [4-(1-(5-ethoxypyridin-2-yl)propoxy)-N-((4-(2-(methylamino)ethoxy)phenyl)sulfonyl)-3-(trifluoromethyl)benzamide]: the IC50 is less than 100 nM.

Take `CC[C@@H](Oc1ccc(C(=O)NS(=O)(=O)c2ccc(O[C@@H]3CCCN(C)C3)cc2)c(F)c1F)c1ccc(OCC2CC2)cn1` [4-((R)-1-(5-(cyclopropylmethoxy)pyridin-2-yl)propoxy)-2,3-difluoro-N-((4-(((R)-1-methylpiperidin-3-yl)oxy)phenyl)sulfonyl)benzamide]: the IC50 is 100 to 500 nM.

With `CC[C@@H](Oc1ccc(C(=O)NS(=O)(=O)c2ccc(O[C@H]3CCCN(C)C3)cc2)c(F)c1F)c1ccc(OCC2CC2)cn1` [4-((R)-1-(5-(cyclopropylmethoxy)pyridin-2-yl)propoxy)-2,3-difluoro-N-((4-(((S)-1-methylpiperidin-3-yl)oxy)phenyl)sulfonyl)benzamide], the IC50 is less than 100 nM.

For the compound `CC[C@@H](Oc1ccc(C(=O)NS(=O)(=O)c2ccc(OC3CCN(C)CC3)cc2)c(F)c1F)c1ccc(OCCOC)cn1` [(R)-2,3-difluoro-4-(1-(5-(2-methoxyethoxy)pyridin-2-yl)propoxy)-N-((4-((1-methylpiperidin-4-yl)oxy)phenyl)sulfonyl)benzamide], the IC50 was more than 500 nM.

Regarding `CC[C@@H](Oc1ccc(C(=O)NS(=O)(=O)N2CCC(OC3CCN(C)CC3)CC2)c(F)c1F)c1ccc(OCCOC)cn1` [(R)-2,3-difluoro-4-(1-(5-(2-methoxyethoxy)pyridin-2-yl)propoxy)-N-((4-((1-methylpiperidin-4-yl)oxy)piperidin-1-yl)sulfonyl)benzamide], the IC50 is more than 500 nM.

For the compound `CC[C@@H](Oc1ccc(C(=O)NS(=O)(=O)N2CC(OC3CCN(C)CC3)C2)c(F)c1F)c1ccc(Oc2ccccn2)cn1` [(R)-2,3-difluoro-N-((3-((1-methylpiperidin-4-yl)oxy)azetidin-1-yl)sulfonyl)-4-(1-(5-(pyridin-2-yloxy)pyridin-2-yl)propoxy)benzamide], the IC50 lay within 100 to 500 nM.

Regarding `CC[C@@H](Oc1ccc(C(=O)NS(=O)(=O)N2CCN(CCCF)CC2)c(F)c1F)c1ccc(Oc2ccccn2)cn1` [(R)-2,3-difluoro-N-((4-(3-fluoropropyl)piperazin-1-yl)sulfonyl)-4-(1-(5-(pyridin-2-yloxy)pyridin-2-yl)propoxy)benzamide], the IC50 is less than 100 nM.

As a reminder, the IC50 is the midpoint of a concentration-inhibition curve.
